# According to patent publication US20220079924A1, “GLUCOCORTICOID RECEPTOR MODULATORS” (ORIC Pharmaceuticals, Inc., priority 2018, published 2022):
# pIC50: −log10 of the molar value.
# Molecular target: T1, GR (Homo sapiens, UniProt P04150)
# T1 construct: expressed in transfected cells; host or cells: CHO-K1 (CHO-K1-GR-MMTV-Luc reporter cells)
# T1 sequence (P04150 1-777): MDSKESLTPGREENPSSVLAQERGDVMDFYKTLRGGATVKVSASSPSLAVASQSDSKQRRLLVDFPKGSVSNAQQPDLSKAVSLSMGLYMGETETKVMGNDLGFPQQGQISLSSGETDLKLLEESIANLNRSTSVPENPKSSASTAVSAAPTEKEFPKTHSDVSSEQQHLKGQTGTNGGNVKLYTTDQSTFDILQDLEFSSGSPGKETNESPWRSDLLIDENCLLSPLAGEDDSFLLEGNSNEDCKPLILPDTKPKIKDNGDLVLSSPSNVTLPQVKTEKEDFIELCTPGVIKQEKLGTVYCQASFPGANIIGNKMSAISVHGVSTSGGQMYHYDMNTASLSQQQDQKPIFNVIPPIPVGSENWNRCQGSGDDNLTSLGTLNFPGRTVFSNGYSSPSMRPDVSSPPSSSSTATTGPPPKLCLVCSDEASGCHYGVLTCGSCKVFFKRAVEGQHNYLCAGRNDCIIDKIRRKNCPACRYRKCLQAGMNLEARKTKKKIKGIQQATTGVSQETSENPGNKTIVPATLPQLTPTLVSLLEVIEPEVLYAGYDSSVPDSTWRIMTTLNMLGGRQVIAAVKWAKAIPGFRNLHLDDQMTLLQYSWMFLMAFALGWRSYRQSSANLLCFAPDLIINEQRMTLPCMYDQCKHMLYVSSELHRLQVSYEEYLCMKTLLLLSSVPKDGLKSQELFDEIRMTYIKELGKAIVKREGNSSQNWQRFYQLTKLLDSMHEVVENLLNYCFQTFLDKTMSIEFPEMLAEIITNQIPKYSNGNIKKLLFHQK
# Experiment: In Vitro GR Luciferase Reporter Assay (antagonist assay)
# Assay type: cell-based
# Conditions: CHO-K1-GR-MMTV-Luc reporter cells, 10 nM Dexamethasone, 18-24 hours
# Protocol: Example A: In Vitro GR Luciferase Reporter Assay
# Cell Line: CHO-K1-GR-MMTV-Luc reporter cells
# Culture Media: DMEM (with phenol red)+10% FBS
# Assay Media: DMEM (without phenol red)+10% CSS
# Culture CHO-K1-GR-MMTV-Luc reporter cells in T175 flasks in Culture Media at conditions less than 90% confluence.
# Using Bravo (Agilent) liquid handler:
# 200× DMSO 1:3 serial dilutions of control and test compounds in 96-well non-sterile V bottom plate in DMSO, 12 points for each compound were prepared.
# Prepared 5× compound serial dilutions: Add 97.5 μL/well of Assay Media into 96-well non-sterile V bottom plate then added 2.5 ul of 200× concentration of compounds and mix well.
# Seeded cells for Antagonist Assay: 5200 CHO-K1-GR-MMTV-Luc reporter cells were seeded in Greiner #781080 flat clear bottom 384-well white TC plate in 20 ul of Assay Media containing 12.5 nM Dexamethasone (final concentration=10 nM).
# Added compounds: 5 μl of 5× compounds were added to appropriate wells and followed with a quick spin (1000 rpm, 10 sec) to bring media and cells to the bottom of plate. The plates were covered with SealMate film to avoid evaporation and placed in 37° C. incubator for approximately 18-24 hours.
# Read plates: Equilibrate appropriate amount of Promega OneGlo luciferase reagent to room temperature. Remove the plates from incubator and add 25 uL of OneGlo reagent/well by Bravo and read the plates on Tecan Spark plate reader within 15 minutes.
# The ability of the compounds disclosed herein to inhibit GR activity was quantified and the respective IC50 value was determined. Table 1 provides the cellular IC50 values of compounds disclosed herein.
row,SMILES,pIC50
1,O=C(c1cc(F)ccn1)[C@]12Cc3cnn(-c4ccc(F)nc4)c3C=C1CC[C@H](N(C1CC1)S(=O)(=O)c1ccc(F)cc1)C2 [Example 27],≥ 7.00
2,O=C(c1cc(Cl)ccn1)[C@]12Cc3cnn(-c4ccc(F)cc4)c3C=C1CC[C@H](N(CC(F)F)S(=O)(=O)c1ccc(F)cc1)C2 [Example 28],≥ 7.00
3,Cn1cc(S(=O)(=O)N(CCF)[C@H]2CCC3=Cc4c(cnn4-c4ccc(F)cc4)C[C@]3(C(=O)c3cc(Cl)ccn3)C2)cn1 [Example 29],≥ 7.00
4,Cn1cnc(S(=O)(=O)N(CC(F)F)[C@H]2CCC3=Cc4c(cnn4-c4ccc(F)cc4)C[C@]3(C(=O)c3cc(F)ccn3)C2)n1 [Example 30],≥ 7.00
5,Cn1cnc(S(=O)(=O)N(CC(F)F)[C@H]2CCC3=Cc4c(cnn4-c4ccc(F)cc4)C[C@]3(C(=O)c3cc(Cl)ccn3)C2)n1 [Example 31],≥ 7.00
6,Cn1cc(S(=O)(=O)N(CCF)[C@H]2CCC3=Cc4c(cnn4-c4ccc(F)cc4)C[C@]3(C(=O)c3cc(C(F)(F)F)ccn3)C2)cn1 [Example 32],≥ 7.00
7,Cn1cnc(S(=O)(=O)N([C@H]2CCOC2)[C@H]2CCC3=Cc4c(cnn4-c4ccc(F)cc4)C[C@]3(C(=O)c3cc(C(F)(F)F)ccn3)C2)n1 [Example 33],≥ 7.00
8,O=C(c1cc(F)ccn1)[C@]12Cc3cnn(-c4ccc(F)cc4)c3C=C1CC[C@H](N(CC(F)(F)F)S(=O)(=O)c1ccc(F)cc1)C2 [Example 34],≥ 7.00
9,C[C@H]([C@H]1CCC2=Cc3c(cnn3-c3ccc(F)cc3)C[C@]2(C(=O)c2ccc(C(F)(F)F)cn2)C1)S(=O)(=O)c1cnn(C)c1 [Example 35],≥ 7.00
10,C[C@@H]([C@H]1CCC2=Cc3c(cnn3-c3ccc(F)cc3)C[C@]2(C(=O)c2ccc(C(F)(F)F)cn2)C1)S(=O)(=O)c1cnn(C)c1 [Example 36],≥ 7.00
11,Cn1cc(S(=O)(=O)N(CC(F)F)[C@H]2CCC3=Cc4c(cnn4-c4ccc(F)cc4)C[C@]3(C(=O)c3cc(C(F)(F)F)ccn3)C2)cn1 [Example 37],≥ 7.00
12,CC(C)N([C@H]1CCC2=Cc3c(cnn3-c3ccc(F)nc3)C[C@]2(C(=O)c2ncc(C(F)(F)F)s2)C1)S(=O)(=O)c1ncn(C)n1 [Example 38],≥ 7.00
13,Cn1cc(S(=O)(=O)N(C2CC2)[C@H]2CCC3=Cc4c(cnn4-c4ccnc(F)c4)C[C@]3(C(=O)c3cc(C(F)(F)F)ccn3)C2)cn1 [Example 39],≥ 7.00
14,Cn1cnc(S(=O)(=O)N(C2CC2)[C@H]2CCC3=Cc4c(cnn4-c4ccnc(F)c4)C[C@]3(C(=O)c3cc(C(F)(F)F)ccn3)C2)n1 [Example 40],≥ 7.00
15,Cn1cnc(S(=O)(=O)N(CC(F)(F)F)[C@H]2CCC3=Cc4c(cnn4-c4ccc(F)cc4)C[C@]3(C(=O)c3cc(Cl)ccn3)C2)n1 [Example 41],≥ 7.00
16,Cn1cnc(S(=O)(=O)N([C@H]2CCC3=Cc4c(cnn4-c4ccc(F)cc4)C[C@]3(C(=O)c3cc(C(F)(F)F)ccn3)C2)[C@H]2C[C@](O)(C(F)(F)F)C2)n1 [Example 42],6.00 to 7.00
17,Cn1cnc(S(=O)(=O)N([C@H]2CCC3=Cc4c(cnn4-c4ccc(F)cc4)C[C@]3(C(=O)c3cc(F)ccn3)C2)[C@H]2C[C@](O)(C(F)(F)F)C2)n1 [Example 43],6.00 to 7.00
18,Cn1cnc(S(=O)(=O)N([C@H]2CCC3=Cc4c(cnn4-c4ccc(F)cc4)C[C@]3(C(=O)c3cc(Cl)ccn3)C2)[C@H]2C[C@](O)(C(F)(F)F)C2)n1 [Example 44],≥ 7.00
19,Cn1cnc(S(=O)(=O)N([C@H]2CCC3=Cc4c(cnn4-c4ccc(F)cc4)C[C@]3(C(=O)c3cc(Cl)ccn3)C2)[C@H]2C[C@@](O)(C(F)(F)F)C2)n1 [Example 45],≥ 7.00
20,Cn1cnc(S(=O)(=O)N(C2CC2)[C@H]2CCC3=Cc4c(cnn4-c4ccc(F)cc4)C[C@]3(C(=O)c3ncc(C(C)(C)C)s3)C2)n1 [Example 46],≥ 7.00

row,SMILES,pIC50
1,Cn1ccc(S(=O)(=O)N(C2CC2)[C@H]2CCC3=Cc4c(cnn4-c4ccc(F)cc4)C[C@]3(C(=O)c3cc(C(F)(F)F)ccn3)C2)c1 [Example 47],≥ 7.00
2,Cn1cnc(S(=O)(=O)N(C2CC2)[C@H]2CCC3=Cc4c(cnn4-c4ccc(F)nc4)C[C@]3(C(=O)c3cc(F)ccn3)C2)n1 [Example 48],≥ 7.00
3,CCN([C@H]1CCC2=Cc3c(cnn3-c3ccc(F)nc3)C[C@]2(C(=O)c2cc(C(F)(F)F)ccn2)C1)S(=O)(=O)c1ncn(C)n1 [Example 49],≥ 7.00
4,CCN([C@H]1CCC2=Cc3c(cnn3-c3ccc(F)nc3)C[C@]2(C(=O)c2cc(Cl)ccn2)C1)S(=O)(=O)c1ncn(C)n1 [Example 50],≥ 7.00
5,CC(C)N([C@H]1CCC2=Cc3c(cnn3-c3ccc(F)nc3)C[C@]2(C(=O)c2cc(C(F)(F)F)ccn2)C1)S(=O)(=O)c1ncn(C)n1 [Example 51],≥ 7.00
6,CC(C)N([C@H]1CCC2=Cc3c(cnn3-c3ccc(F)nc3)C[C@]2(C(=O)c2cc(Cl)ccn2)C1)S(=O)(=O)c1ncn(C)n1 [Example 52],≥ 7.00
7,O=C(c1cc(Cl)ccn1)[C@]12Cc3cnn(-c4ccc(F)cc4)c3C=C1CC[C@H](N(CC(F)(F)F)S(=O)(=O)c1ccc(F)cc1)C2 [Example 53],≥ 7.00
8,Cn1cc(S(=O)(=O)N(Cc2ncco2)[C@H]2CCC3=Cc4c(cnn4-c4ccc(F)cc4)C[C@]3(C(=O)c3cc(C(F)(F)F)ccn3)C2)cn1 [Example 54],≥ 7.00
9,Cn1cnc(S(=O)(=O)N(C2CC2)[C@H]2CCC3=Cc4c(cnn4-c4ccc(F)cn4)C[C@]3(C(=O)c3cc(C(F)(F)F)ccn3)C2)n1 [Example 55],≥ 7.00
10,C[C@H]([C@H]1CCC2=Cc3c(cnn3-c3ccc(F)cc3)C[C@]2(C(=O)c2ncc(C(F)(F)F)s2)C1)S(=O)(=O)c1ncn(C)n1 [Example 56],≥ 7.00
11,C[C@@H]([C@H]1CCC2=Cc3c(cnn3-c3ccc(F)cc3)C[C@]2(C(=O)c2ncc(C(F)(F)F)s2)C1)S(=O)(=O)c1ncn(C)n1 [Example 57],≥ 7.00
12,Cn1ccc(S(=O)(=O)N(C2CC2)[C@H]2CCC3=Cc4c(cnn4-c4ccc(F)cc4)C[C@]3(C(=O)c3cc(F)ccn3)C2)c1 [Example 58],≥ 7.00
13,C[C@H]([C@H]1CCC2=Cc3c(cnn3-c3ccc(F)cc3)C[C@]2(C(=O)c2ncc(C(C)(C)C)s2)C1)S(=O)(=O)c1cnn(C)c1 [Example 59],≥ 7.00
14,Cn1cc(S(=O)(=O)N(CCOC(F)(F)F)[C@H]2CCC3=Cc4c(cnn4-c4ccc(F)cc4)C[C@]3(C(=O)c3cc(C(F)(F)F)ccn3)C2)cn1 [Example 60],≥ 7.00
15,Cn1cc(S(=O)(=O)N(C2CC2)[C@H]2CCC3=Cc4c(cnn4-c4ccc(F)nc4)C[C@]3(C(=O)c3ncc(C(C)(C)C)s3)C2)cn1 [Example 61],≥ 7.00
16,C[C@H]([C@H]1CCC2=Cc3c(cnn3-c3ccc(F)cc3)C[C@]2(C(=O)c2cc(F)ccn2)C1)S(=O)(=O)c1cnn(C)c1 [Example 62],≥ 7.00
17,CC(C)N([C@H]1CCC2=Cc3c(cnn3-c3ccc(F)cc3)C[C@]2(C(=O)c2ncc(C(C)(C)C)s2)C1)S(=O)(=O)c1cnn(C)c1 [Example 63],≥ 7.00
18,CC(C)N([C@H]1CCC2=Cc3c(cnn3-c3ccc(F)cc3)C[C@]2(C(=O)c2cc(C(C)(C)C)ccn2)C1)S(=O)(=O)c1cnn(C)c1 [Example 64],≥ 7.00
19,Cn1cnc(S(=O)(=O)N(C2CC2)[C@H]2CCC3=Cc4c(cnn4-c4ccc(F)cn4)C[C@]3(C(=O)c3ncc(C(C)(C)C)s3)C2)n1 [Example 65],≥ 7.00
20,CC(C)N([C@H]1CCC2=Cc3c(cnn3-c3ccc(F)nc3)C[C@]2(C(=O)c2cc(F)ccn2)C1)S(=O)(=O)c1ncn(C)n1 [Example 66],≥ 7.00
